This assay relates to Meloidogyne incognita. Briefly: 96-well microplate bioassay of nematicidal activity of culture filtrates on Meloidogyne spp. larva suspension. Conditions: 1 μg/mL, control drug, after 3 days. Here is the method:
To select filamentous fungi having an excellent nematicidal activity, the present inventors have received 61 culture filtrates of filamentous fungi to screen their nematicidal activities. Specifically, roots of a tomato plant infected with Meloidogyne spp. were washed with running water to remove foreign substances. Thereafter, the well-washed roots were cut into pieces at intervals of 1 cm or less, and put into a blender. Then, a 0.5% sodium hypochlorite solution was added at such an amount that the roots were immersed, and the roots were ground for one minute. Subsequently, the ground roots were filtered through a 65 μm sieve to remove root debris, and the eggs passed through the sieve were collected through a 25 μm sieve, and then washed with sterilized water several times. A concentration of the collected Meloidogyne spp. eggs was measured using a stereoscopic microscope.
The nematicidal activities of the culture filtrates of the 61 fungi were screened using a 96-well microplate bioassay. 45 μL of a Meloidogyne spp. larva suspension, which includes approximately 50 larvae, was added to each of holes, and then treated with a 10% culture filtrate. After 3 days of the sample treatment, the nematicidal activity was determined using the following equation. […]

abamectin came in with a nematicidal activity of 95%.
